Holding throughout (type): cell-based, mouse
The test system of data set [1] is PGE2 production in LPS-induced macrophages. Kind of data set: PGE2 assay in LPS-induced RAW264.7 macrophages. As to conditions: pure compound in cell media, 1 μg/ml LPS, 8 hours. The protocol: RAW264.7 macrophages were purchased from the American Type Culture Collections (ATCC; […] Cells were plated at a density of 1.0×10^5 cells/well in 24-well cell culture plates and allowed to attach overnight. […] Louis, Mo.) and solvent alone, dimethylsulfoxide (DMSO) (Sigma, St. Louis, Mo.), or H. gentianoides extract or fraction simultaneously for 8 hours. Cell supernatants were collected on ice, and stored in a −70° C. freezer for use in the PGE2 assay. […] Four controls were included in each treatment: media alone, media and DMSO, media and LPS, and media and LPS and DMSO. In addition, 10 μM quercetin was used as a positive control. Since H. perforatum contains light-activated compounds, the H. gentianoides extract was tested in both light-activated and dark conditions initially to determine if the activity was dependent on light activation. […] The supernatant samples were assayed with a Prostaglandin E2 EIA kit (GE Biosciences, Piscataway, N.J.) according to manufacturer's instructions. […] Data is shown as mean percent reduction in LPS-induced PGE2 levels±the standard error as compared to the media+LPS+DMSO control. Statistical significance was determined by an F-protected two-way ANOVA followed by a Tukey-Kramer test for multiple comparisons (Snedecor, G. W., Cochran, W. G., Eds. (1989). Statistical Methods, 8th ed. University Press: Ames, Iowa). For cytotoxicity, data are represented as mean % cytotoxicity±standard error as compared to the media+DMSO control. Statistical significance was determined by an F-protected two-way ANOVA followed by a Dunnett-Hsu test for multiple comparisons (Dunnett C. W. (1955). “A multiple comparison procedure for comparing several treatments with a control.” Journal of the American Statistical Association. 50:1096-1121). […] The ability of H. gentianoides extracts to reduce the inflammatory response was assessed by quantifying PGE2 production in LPS-induced macrophages. […]

The test system of another data set is RAW264.7 macrophages. Nature of the data set: CellTiter96 cytotoxicity assay in RAW264.7 macrophages. Here is the method: CellTiter96® Aqueous One Solution cell proliferation assay (Promega Corporation, Madison, Wis.) was used as previously described in Schmitt et al. with an 8-hour treatment incubation instead of 24-hour treatment incubation to parallel the anti-inflammatory studies (Schmitt, L. A., et al., (2006)). Following the 8 hour incubation, treatment solutions were removed and fresh media and Celltiter96® dye were added for 3 hours and 15 minutes (Schmitt, L. A., et al., (2006)). The metabolized dye solutions were transferred to 96-well plates for absorbance measurement at 490 nm. The number of viable cells for each treatment was compared to the media+DMSO solvent control. Treatment with 20 μM hypericin was used as a positive control. Data is shown as mean percent reduction in LPS-induced PGE2 levels±the standard error as compared to the media+LPS+DMSO control. Statistical significance was determined by an F-protected two-way ANOVA followed by a Tukey-Kramer test for multiple comparisons (Snedecor, G. W., Cochran, W. G., Eds. (1989). Statistical Methods, 8th ed. University Press: Ames, Iowa). For cytotoxicity, data are represented as mean % cytotoxicity±standard error as compared to the media+DMSO control. Statistical significance was determined by an F-protected two-way ANOVA followed by a Dunnett-Hsu test for multiple comparisons (Dunnett C. W. (1955). “A multiple comparison procedure for comparing several treatments with a control.” Journal of the American Statistical Association. 50:1096-1121).

The subject of the next data set is cyclooxygenase-2. Kind of data set: Western blot of COX-2 protein in LPS-induced RAW 264.7 macrophages. As to conditions: 8 hour treatment, dose not given. The protocol:
FIG. 9. […] After an 8 hour treatment with lipopolysaccharide (LPS) and H. gentianoides fractions, a protein extraction was performed on the RAW 264.7 macrophages. Separation of the proteins was carried out on a discontinuous (4% stacking, 10% resolving) sodium dodecyl sulfate-polyacrylamide (30% acrylamide/bis solution) (BioRad; Hercules, Calif.) gel, followed by transfer to a PVDF membrane (GE Healthcare; Piscataway, N.J.) at 100V for 2.5 hours. COX-2 rabbit polyclonal antibody (Santa Cruz Biotechnology, Santa Cruz, Calif.) was diluted 1:1000 in 5% milk Tris-buffered saline with 0.5% Tween-20 (TBS-T). The secondary antibody (goat, anti-rabbit IgG, HRP conjugated, Santa Cruz Biotechnology; Santa Cruz, Calif.) was diluted 1:1000 in 5% milk in TBS-T. Detection was visualized on blue sensitive autoradiographic film (Marsh Bioproducts; Rochester, N.Y.) with a chemiluminescence (ECLplus) detection kit (GE Healthcare; Piscataway, N.J.).
After an 8 hour treatment with lipopolysaccharide (LPS) and H. gentianoides fractions, RAW 264.7 cells were rinsed twice with ice cold 1× phosphate buffered saline (PBS). […] The protein concentration in each lysate was determined using the bicinchonic acid and copper sulfate protein assay (Sigma; St. Louis, Mo.). […]
For orientation: Immunoblotting shows a protein as a band on a membrane.

The next data set has as its system cyclooxygenase-1. Nature of the data set: Western blot of COX-1 protein in LPS-induced RAW 264.7 macrophages. As to conditions: 8 hour treatment.

With `CC(C)=CCc1c(O)c(CC2=C(O)C(C)=C(O)C(CC=C(C)C)(C(=O)C(C)C)C2=O)c(O)c(C(=O)C(C)C)c1O` (centres unmarked) [hyperbrasilol C], in data set [1], the “lowest tested dose with significant reduction of PGE2 concentrations” value is 10 µM. Also, the cytotoxicity result in the data set with RAW264.7 macrophages (dose of 100 μM) was “no significant cytotoxicity”.
With `Cc1c(O)c(CC2=C(O)C(C)(C)C(=O)C(C(=O)C(C)C)=C2O)c(O)c(C(=O)C(C)C)c1O` [saroaspidin A], in data set [1], the “lowest tested dose with significant reduction of PGE2 concentrations” value is 2 µM. The “doses at which significant cytotoxicity stops” value in the data set on RAW264.7 macrophages (RAW264.7 macrophages, tested 0.5-100 μM) was at most 10 µM. Further, the cyclooxygenase-2 enzyme result with cyclooxygenase-2 is given as “reduces”. For the same compound, in the data set with cyclooxygenase-1, the cyclooxygenase-1 protein result is “does not appear to be affected”.
For the compound `CC(C)=CCc1c(O)c(CC2=C(O)C(C)(C)C(=O)C(C(=O)C(C)C)=C2O)c(O)c(C(=O)C(C)C)c1O` [uliginosin A], the “lowest tested dose with significant reduction of PGE2 concentrations” value in data set [1] was found to be 10 µM. Moreover, in the data set on RAW264.7 macrophages (RAW264.7 macrophages), the “tested dose from which cytotoxicity is significant” value turned out to be 100 µM.

These data come from US7854946B1, “Anti-inflammatory and anti-HIV compositions and methods of use” (Iowa State University Research Foundation, Inc., priority 2007, dated 2010).
